Literature values as cited in US8911424B2, “Methods and devices for preventing catheter related urinary tract infections” (Ethicon, Inc., priority 2011, dated 2014).

Settings: aqueous solubility

[Br][Ag] [Silver Bromide]
Solubility (g/100 g H2O): 0.000014 g/100 g H2O
